# Data from EP3355943B1, “METHODS AND SYSTEMS FOR TREATING MEDICAL DEVICES AND FLUIDS” (Ethicon, Inc., priority 2015, dated 2017).
# Where “and” joins values, the source holds several entries; their conditions need not be identical. Equal values may be shown once.
# Key:
# Format in all cases: biochemical
# [1] = Suture testing in ethanol, cyclohexane, isopropanol with 1% calcium stearate; settings: for Change in Endotoxin Level (%): vs. Suture-1 not submerged (68.1 EU)
# Protocol: Similarly to the testing above, an absorbable suture of the same type, similarly contaminated, was exposed to CaSt in three solvents (ethanol, cyclohexane, isopropanol). The suture was then tested for LPS.
# Sutures used were 27 inch long pieces of absorbable lactide-glycolide sutures. […] 7 strands of suture were placed in tubing with endotoxin solution for 10 minutes at a time. The sutures were dried for 20 minutes and then placed in round bottom tubes. […] 1 suture was placed in each tube and vortexed in this solution for approximately 10 seconds. The sutures were removed and allowed to dry for 20 minutes and then placed in round bottom tubes. This was done for 6 sutures. 1 piece of suture, serving as the control, was not submerged in any solutions and placed in test tubes. 3 mL of LAL reagent water was added to each test tube, vortexed vigorously, and then placed in a hot water bath at 37°C for 1 hour. They were then removed, vortexed vigorously, diluted, and tested on the MCS system. […] Results of testing in ethanol, cyclohexane, isopropanol
# [2] = Effect of storage (dwell time) on efficacy of pre-mixed CaSt suspensions, sonicated or vortexed
# Protocol: Efficacy of pre-mixed CaSt suspensions (sonicated and vortexed) was tested, comparing efficacy of immediately prepared suspensions with suspensions having shelf life or dwell time of 90 min, 5 days, and 1 month prior to contact with endotoxin containing solutions.
# 10 mL SRW was then introduced to the sonicated CaSt mixture. It was then vortexed for 5 seconds to fully incorporate the sonicated CaSt. The mixture was then tested after 15 minutes of interaction to measure the percent decrease of endotoxin.
# 10 mL SRW was then introduced to the vortexed CaSt mixture. It was then vortexed for 5 seconds to fully incorporate the sonicated CaSt. The mixture was then tested after 15 minutes of interaction to measure the percent decrease of endotoxin.
# These mixtures were then tested on the Charles River MCS at a dilution of 1:2000 after 15 minutes of interaction.
# Testing of suspensions having shelf life or dwell time of 90 min, 5 days, and 1 month prior to contact with endotoxin containing solutions.
# Test samples were prepared as described above, sonicated and vortexed, but were subjected to shelf life or dwell time of 90 min, 5 days, and 1 month prior to contact with endotoxin containing solution (SRW). After dwell time exposure, similarly to the immediate mixing test above, 10 mL SRW was then introduced to the sonicated or vortexed CaSt mixture. It was then vortexed for 5 seconds to fully incorporate the sonicated CaSt. The mixture was then tested after 15 minutes of interaction to measure the percent decrease of endotoxin. These mixtures were then tested on the Charles River MCS at a dilution of 1:2000 after 15 minutes of interaction.
# *The 1 month shelf life sample was only tested at 0.04g CaSt and measured the percent removal after 15 minutes of interaction as well as 30 minutes after interaction.
# [3] = Endotoxin removal by sonicated CaSt suspension stored 1 month; settings: listed as CaSt suspension; for Percent Endotoxin Removal(15 min/30 min): sonicated suspension stored 1 month
# Protocol: 10 ml of LRW water (LAL reagent water, contains no endotoxin) containing 0.04 g of CaSt suspension was sonicated using Misonix Probe Sonicator, Model: S-4000, Amplitude: 30, Time: 30 seconds and then the suspension was stored for 1 month at ambient temperature. Then 1 ml of the above suspension was added to 10 ml endotoxin containing water SRW and the resulting endotoxin concentrations in the combined solution measured after 15 min and 30 min, with the results presented in Table 14.
# [4] = suture submerged in Cyclohexane w/1% Calcium Stearate (0.0858 g)
# [5] = suture submerged in Ethanol w/1% Calcium Stearate (0.0827 g)
# [6] = suture submerged in Isopropanol w/1% Calcium Stearate (0.0841 g)
# [7] = 0.02 g CaSt, Sonicated, 5 Day dwell time
smiles,measurement,setting,value
CCCCCCCCCCCCCCCCCC(=O)O [Calcium Stearate],LPS activity decreased by,"[1]; CaSt 1% suspension in ethanol, cyclohexane, isopropanol",75-95%
same,Endotoxin Detected (EU),[1]; [4],4.02 EU
same,Change in Endotoxin Level (%),[1]; [4],-94.1%
same,Endotoxin Detected (EU),[1]; [5],15.06 EU
same,Change in Endotoxin Level (%),[1]; [5],-77.9%
same,Endotoxin Detected (EU),[1]; [6],16.59 EU
same,Change in Endotoxin Level (%),[1]; [6],-75.6%
same,Average Percent Change,[2]; [7],76%
same,Percent Endotoxin Removed,[2]; [7],76%
same,EU After,"[2]; 0.02 g CaSt, Sonicated, 5 Day dwell time, 15 minutes, EU Before 37,800","9,200 EU"
same,Average Percent Change,"[2]; 0.02 g CaSt, Sonicated, 90 min dwell time",61%
same,EU After,"[2]; 0.02 g CaSt, Sonicated, 90 min dwell time, 15 minutes, EU Before 36,100, listed as Aged Sonicated CaSt #1",15120 EU
same,EU After,"[2]; 0.02 g CaSt, Sonicated, 90 min dwell time, 15 minutes, EU Before 36,100, listed as Aged Sonicated CaSt #2","12,960 EU"
same,Percent Endotoxin Removed,"[2]; 0.02 g CaSt, Sonicated, 90 min dwell time, listed as Aged Sonicated CaSt #1",58%
same,Percent Endotoxin Removed,"[2]; 0.02 g CaSt, Sonicated, 90 min dwell time, listed as Aged Sonicated CaSt #2",64%
same,Average Percent Change,"[2]; 0.02 g CaSt, Sonicated, Immediate Mixing",74%
same,EU After,"[2]; 0.02 g CaSt, Sonicated, Immediate Mixing, 15 minutes, EU Before 36,100, listed as Sonicated CaSt #1","8,960 EU"
same,EU After,"[2]; 0.02 g CaSt, Sonicated, Immediate Mixing, 15 minutes, EU Before 36,100, listed as Sonicated CaSt #2","10,240 EU"
same,Percent Endotoxin Removed,"[2]; 0.02 g CaSt, Sonicated, Immediate Mixing, listed as Sonicated CaSt #1",75%
same,Percent Endotoxin Removed,"[2]; 0.02 g CaSt, Sonicated, Immediate Mixing, listed as Sonicated CaSt #2",72%
same,Average Percent Change,"[2]; 0.02 g CaSt, Vortexed, 5 Day dwell time",64%
same,EU After,"[2]; 0.02 g CaSt, Vortexed, 5 Day dwell time, 15 minutes, EU Before 37,800, listed as Aged Vortexed CaSt #3","15,120 EU"
same,EU After,"[2]; 0.02 g CaSt, Vortexed, 5 Day dwell time, 15 minutes, EU Before 37,800, listed as Aged Vortexed CaSt #4","12,160 EU"
same,Percent Endotoxin Removed,"[2]; 0.02 g CaSt, Vortexed, 5 Day dwell time, listed as Aged Vortexed CaSt #3",60%
same,Percent Endotoxin Removed,"[2]; 0.02 g CaSt, Vortexed, 5 Day dwell time, listed as Aged Vortexed CaSt #4",68%
same,Average Percent Change,"[2]; 0.02 g CaSt, Vortexed, 90 min dwell time",43%
same,EU After,"[2]; 0.02 g CaSt, Vortexed, 90 min dwell time, 15 minutes, EU Before 36,100, listed as Aged Vortexed CaSt #1","22,400 EU"
same,EU After,"[2]; 0.02 g CaSt, Vortexed, 90 min dwell time, 15 minutes, EU Before 36,100, listed as Aged Vortexed CaSt #2",19280 EU
same,Percent Endotoxin Removed,"[2]; 0.02 g CaSt, Vortexed, 90 min dwell time, listed as Aged Vortexed CaSt #1",38%
same,Percent Endotoxin Removed,"[2]; 0.02 g CaSt, Vortexed, 90 min dwell time, listed as Aged Vortexed CaSt #2",47%
same,Average Percent Change,"[2]; 0.02 g CaSt, Vortexed, Immediate Mixing",32%
same,EU After,"[2]; 0.02 g CaSt, Vortexed, Immediate Mixing, 15 minutes, EU Before 36,100, listed as Aged Vortexed CaSt #1","29,200 EU"
same,EU After,"[2]; 0.02 g CaSt, Vortexed, Immediate Mixing, 15 minutes, EU Before 36,100, listed as Aged Vortexed CaSt #2","20,480 EU"
same,Percent Endotoxin Removed,"[2]; 0.02 g CaSt, Vortexed, Immediate Mixing, listed as Aged Vortexed CaSt #1",20%
same,Percent Endotoxin Removed,"[2]; 0.02 g CaSt, Vortexed, Immediate Mixing, listed as Aged Vortexed CaSt #2",43%
same,EU After,"[2]; 0.04 g CaSt, Sonicated, Immediate Mixing with 10 mL SRW, 15 minutes, EU Before 36,100, listed as Sonicated CaSt #1","5,320 EU"
same,EU After,"[2]; 0.04 g CaSt, Sonicated, Immediate Mixing with 10 mL SRW, 15 minutes, EU Before 36,100, listed as Sonicated CaSt #2","5,800 EU"
same,Average Percent Change,"[2]; 0.04 g CaSt, Sonicated, Immediate Mixing, 15 minutes",85%
same,Percent Endotoxin Removed,"[2]; 0.04 g CaSt, Sonicated, Immediate Mixing, 15 minutes, listed as Sonicated CaSt #1",85%
same,Percent Endotoxin Removed,"[2]; 0.04 g CaSt, Sonicated, Immediate Mixing, 15 minutes, listed as Sonicated CaSt #2",84%
same,Average Percent Change,"[2]; 0.04 g CaSt, Sonicated, Mixing after 1 Month dwell time",50%
same,EU After,"[2]; 0.04 g CaSt, Sonicated, Mixing after 1 Month dwell time, 15 minutes, EU Before 14650, listed as Aged Sonicated CaSt #1",7440 EU
same,EU After,"[2]; 0.04 g CaSt, Sonicated, Mixing after 1 Month dwell time, 15 minutes, EU Before 14650, listed as Aged Sonicated CaSt #2",7240 EU
same,Percent Endotoxin Removed,"[2]; 0.04 g CaSt, Sonicated, Mixing after 1 Month dwell time, listed as Aged Sonicated CaSt #1",49.2%
same,Percent Endotoxin Removed,"[2]; 0.04 g CaSt, Sonicated, Mixing after 1 Month dwell time, listed as Aged Sonicated CaSt #2",50.6%
same,Average Percent Change,"[2]; 0.04 g CaSt, Sonicated, Mixing after 5 Days dwell time",85%
same,EU After,"[2]; 0.04 g CaSt, Sonicated, Mixing after 5 Days dwell time, 15 minutes, EU Before 37,800, listed as Aged Sonicated CaSt #3","5,040 EU"
same,EU After,"[2]; 0.04 g CaSt, Sonicated, Mixing after 5 Days dwell time, 15 minutes, EU Before 37,800, listed as Aged Sonicated CaSt #4","6,560 EU"
same,Percent Endotoxin Removed,"[2]; 0.04 g CaSt, Sonicated, Mixing after 5 Days dwell time, listed as Aged Sonicated CaSt #3",87%
same,Percent Endotoxin Removed,"[2]; 0.04 g CaSt, Sonicated, Mixing after 5 Days dwell time, listed as Aged Sonicated CaSt #4",83%
same,Average Percent Change,"[2]; 0.04 g CaSt, Sonicated, Mixing after 90 min dwell time",81%
same,EU After,"[2]; 0.04 g CaSt, Sonicated, Mixing after 90 min dwell time, 15 minutes, EU Before 36,100, listed as Aged Sonicated CaSt #1",6168 EU
same,EU After,"[2]; 0.04 g CaSt, Sonicated, Mixing after 90 min dwell time, 15 minutes, EU Before 36,100, listed as Aged Sonicated CaSt #2","8,000 EU"
same,Percent Endotoxin Removed,"[2]; 0.04 g CaSt, Sonicated, Mixing after 90 min dwell time, listed as Aged Sonicated CaSt #1",83%
same,Percent Endotoxin Removed,"[2]; 0.04 g CaSt, Sonicated, Mixing after 90 min dwell time, listed as Aged Sonicated CaSt #2",78%
same,Average Percent Change,"[2]; 0.04 g CaSt, Vortexed, Immediate Mixing",44%
same,EU After,"[2]; 0.04 g CaSt, Vortexed, Immediate Mixing, 15 minutes, EU Before 36,100, listed as Aged Vortexed CaSt #1","19,840 EU"
same,EU After,"[2]; 0.04 g CaSt, Vortexed, Immediate Mixing, 15 minutes, EU Before 36,100, listed as Aged Vortexed CaSt #2",20480 EU
same,Percent Endotoxin Removed,"[2]; 0.04 g CaSt, Vortexed, Immediate Mixing, listed as Aged Vortexed CaSt #1",45%
same,Percent Endotoxin Removed,"[2]; 0.04 g CaSt, Vortexed, Immediate Mixing, listed as Aged Vortexed CaSt #2",43%
same,Average Percent Change,"[2]; 0.04 g CaSt, Vortexed, Mixing after 5 Days dwell time",75%
same,EU After,"[2]; 0.04 g CaSt, Vortexed, Mixing after 5 Days dwell time, 15 minutes, EU Before 37,800, listed as Aged Vortexed CaSt #3","9,080 EU"
same,EU After,"[2]; 0.04 g CaSt, Vortexed, Mixing after 5 Days dwell time, 15 minutes, EU Before 37,800, listed as Aged Vortexed CaSt #4","9,760 EU"
same,Percent Endotoxin Removed,"[2]; 0.04 g CaSt, Vortexed, Mixing after 5 Days dwell time, listed as Aged Vortexed CaSt #3",76%
same,Percent Endotoxin Removed,"[2]; 0.04 g CaSt, Vortexed, Mixing after 5 Days dwell time, listed as Aged Vortexed CaSt #4",74%
same,Average Percent Change,"[2]; 0.04 g CaSt, Vortexed, Mixing after 90 min dwell time",54%
same,EU After,"[2]; 0.04 g CaSt, Vortexed, Mixing after 90 min dwell time, 15 minutes, EU Before 36,100, listed as Aged Vortexed CaSt #1","17,120 EU"
same,EU After,"[2]; 0.04 g CaSt, Vortexed, Mixing after 90 min dwell time, 15 minutes, EU Before 36,100, listed as Aged Vortexed CaSt #2","16,460 EU"
same,Percent Endotoxin Removed,"[2]; 0.04 g CaSt, Vortexed, Mixing after 90 min dwell time, listed as Aged Vortexed CaSt #1",53%
same,Percent Endotoxin Removed,"[2]; 0.04 g CaSt, Vortexed, Mixing after 90 min dwell time, listed as Aged Vortexed CaSt #2",54%
same,Endotoxin EU/mL (15 min after addition of CaSt suspension),"[3]; 0.04 g CaSt in 10 ml LRW sonicated, stored 1 month, added to SRW, initial 732.5 EU/mL, 15 min",372 EU/mL and 362 EU/mL
same,Endotoxin EU/mL (30 min after addition of CaSt suspension),"[3]; 0.04 g CaSt in 10 ml LRW sonicated, stored 1 month, added to SRW, initial 732.5 EU/mL, 30 min",384 EU/mL and 278 EU/mL
same,Percent Endotoxin Removal(15 min/30 min),[3]; 15 min,49.2% and 50.6%
same,Percent Endotoxin Removal(15 min/30 min),[3]; 30 min,47.6% and 62.0%
